Reference: US11667602B2, “Compounds and their use” (AstraZeneca AB, priority 2020, dated 2023)
In brackets after ≈: the same amount, converted by molar mass. Read-outs that look alike come from different tables or passages of the source.

Legend:
Solubility (Test F) = type: physicochemical; settings: arithmetic mean if run multiple times
Description: The assay was conducted according to the Solubility Assay described in pages 164-167 of Wernevik, J. et al., “A Fully Integrated Assay Panel for Early Drug Metabolism and Pharmacokinetics Profiling”, Assay and Drug Development Technologies, 2020, 18(4), 157-179. Data are reported in Table 36 as solubility ([…]. Where the assay was run multiple times for the same compound, the arithmetic mean is reported.

[1] = Human Liver Microsomal Stability (Test C); type: in vitro ADME; settings: for microsomal CLint: human, liver microsomes
Summary of the method: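 Human liver microsome incubation per the Wernevik et al. integrated DMPK panel protocol. Intrinsic clearance reported as CLint in μl/min/mg protein, averaged arithmetically over repeat runs.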

[2] = Rat Hepatocyte Stability (Test E); type: in vitro ADME; settings: geometric mean if run multiple times; for hepatocyte CLint: rat, hepatocytes
Summary of the method: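 Run per the published AstraZeneca-type rat hepatocyte stability protocol (Wernevik et al. panel). Values are mean intrinsic clearance, Clint in μl/min/10^6 cells; geometric mean used for repeated runs.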

[3] = Human Hepatocyte Stability (Test D); type: in vitro ADME; settings: geometric mean if run multiple times; for hepatocyte CLint at 1 µM: human, cryopreserved pooled human hepatocytes (LiverPool 10-Donor)
Summary of the method: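 Pooled 10-donor cryopreserved human hepatocytes (≥80% viable) in L-15 medium at 0.25×10^6 cells per 0.25 mL well. Compound added from 100 μM acetonitrile solution; incubated at 37 °C with shaking, acetonitrile-quenched, LC-MS analysed. Clint (μL/min/10^6 cells) from ln % parent vs time slope; geometric mean of repeat runs.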

human RXFP1 = molecular target: T1, human RXFP1 (Homo sapiens, UniProt Q9HBX9); assay: RXFP1 Hu cAMP (Test A); type: cell-based; parameters: expressed in transfected cells; host or cells: Jump-In T-REx CHO-K1 cells (ThermoFisher), induced with 10 ng/ml doxycycline for 24 h
T1 sequence (Q9HBX9 1-757): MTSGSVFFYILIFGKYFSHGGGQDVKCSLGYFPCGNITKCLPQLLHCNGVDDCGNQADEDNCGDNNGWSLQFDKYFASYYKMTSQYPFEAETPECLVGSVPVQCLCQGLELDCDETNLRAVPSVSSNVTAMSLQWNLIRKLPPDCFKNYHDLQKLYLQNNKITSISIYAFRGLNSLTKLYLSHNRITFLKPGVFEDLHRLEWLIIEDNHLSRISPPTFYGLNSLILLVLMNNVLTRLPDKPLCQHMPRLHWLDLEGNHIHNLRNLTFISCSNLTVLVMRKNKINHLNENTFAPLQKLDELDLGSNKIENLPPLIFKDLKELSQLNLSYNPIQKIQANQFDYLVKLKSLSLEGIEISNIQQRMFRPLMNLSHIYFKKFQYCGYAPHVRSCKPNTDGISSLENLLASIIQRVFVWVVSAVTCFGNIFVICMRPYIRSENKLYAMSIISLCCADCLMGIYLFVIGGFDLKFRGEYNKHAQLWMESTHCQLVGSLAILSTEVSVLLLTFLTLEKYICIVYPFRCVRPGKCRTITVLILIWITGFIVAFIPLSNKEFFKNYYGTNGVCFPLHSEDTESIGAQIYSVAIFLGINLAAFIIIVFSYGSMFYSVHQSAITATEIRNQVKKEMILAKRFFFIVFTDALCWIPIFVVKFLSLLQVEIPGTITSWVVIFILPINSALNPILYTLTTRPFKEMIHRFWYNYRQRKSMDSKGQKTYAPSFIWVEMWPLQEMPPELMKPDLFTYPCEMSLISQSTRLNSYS
Summary of the method: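 Cells: CHO-K1 stably carrying human RXFP1, expressed after 24 h 10 ng/ml doxycycline; 0.5 mM IBMX final, HTRF detection after 2 h at room temperature.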

[4] = Human Plasma Protein Binding (Test B); type: in vitro ADME; settings: fraction unbound (fu)
Summary of the method: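 Human plasma protein binding run per the published Wernevik et al. (2020) integrated DMPK panel protocol. Values are fraction unbound (fu, % free); repeat runs averaged arithmetically.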

[5] = RXFP1 Hu cAMP, read-out: Test A EC50

SMILES	solubility (Solubility (Test F))	microsomal CLint [1]	hepatocyte CLint [2]	hepatocyte CLint at 1 µM [3]	EC50 (human RXFP1; [5])	Test B Human Plasma Protein Binding (% free) [4]	Test A Sinf (human RXFP1; RXFP1 Hu cAMP)	Test C Human Liver Microsomal Stability Clint ([1]; human liver microsomes)	Test E Rat Hepatocyte Stability Clint ([2]; rat hepatocytes)	Test D Human Hepatocyte Stability Clint ([3]; human hepatocytes)	EC50 (human RXFP1; Test A EC50, RXFP1 Hu cAMP)
COc1cc(F)c(-c2ccc(C(=O)O)cc2)cc1C(=O)N[C@@H]1[C@H](C(=O)Nc2cccc(S(=O)(=O)C(F)(F)F)c2)[C@H]2C=C[C@@H]1C2 (single isomer, unassigned) [Example 553]	> 1000 µM	9.9 µL/min/mg	18 µL/min/1e6 cells	9.2 µL/min/1e6 cells	> 50 µM	<0.30 % free	–	–	–	–	–
COc1cc(F)c(-c2cccc(C(=O)O)c2)cc1C(=O)N[C@H]1[C@@H](C(=O)Nc2cccc(S(=O)(=O)C(F)(F)F)c2)[C@@H]2C=C[C@H]1C2 (single isomer, unassigned) [Example 554]	700 µM (≈ 443 µg/mL)	< 3 µL/min/mg	18 µL/min/1e6 cells	5.4 µL/min/1e6 cells	–	<0.30 % free	103%	–	–	–	–
COc1cc(F)c(-c2cccc(C(=O)O)c2)cc1C(=O)N[C@@H]1[C@H](C(=O)Nc2cccc(S(=O)(=O)C(F)(F)F)c2)[C@H]2C=C[C@@H]1C2 (single isomer, unassigned) [Example 555]	560 µM (≈ 354 µg/mL)	21 µL/min/mg	18 µL/min/1e6 cells	13 µL/min/1e6 cells	> 50 µM	<0.30 % free	–	–	–	–	–
COc1cc(F)c(O[C@H]2CC[C@@](C)(C(=O)O)CC2)cc1C(=O)NC1C2CCC(C2)C1C(=O)Nc1cccc(S(=O)(=O)C(F)(F)F)c1 (single isomer, unassigned) [Example 586, (1R,4s)-4-(2-Fluoro-4-methoxy-5-(((1S*,2S*,3R*,4R*)-3-((3-((trifluoromethyl)sulfonyl)phenyl)carbamoyl)bicyclo[2.2.1]heptan-2-yl)carbamoyl)phenoxy)-1-methylcyclohexane-1-carboxylic acid]	190 µM (≈ 127 µg/mL)	12 µL/min/mg	17 µL/min/1e6 cells	4.3 µL/min/1e6 cells	0.0015 µM	0.33 % free	105%	–	–	–	–
COc1cc(F)c(-c2ccc(C(=O)O)cc2)cc1C(=O)N[C@H]1[C@@H]2CC[C@@H](C2)[C@H]1C(=O)Nc1ccc(F)c(C(F)(F)F)c1 (single isomer, unassigned) [Example 591]	> 1000 µM	19 µL/min/mg	28 µL/min/1e6 cells	140 µL/min/1e6 cells	–	<0.36 % free	111%	–	–	–	–
COc1cc(F)c(O[C@H]2CC[C@@](C)(C(=O)O)CC2)cc1C(=O)N[C@H]1C[C@@H](OC)C[C@H]1C(=O)Nc1cccc(S(=O)(=O)C(F)(F)F)c1 (stereo in doubt) [Example 523, (1R,4s)-4-(2-fluoro-4-methoxy-5-(((1S*,2R*,4S*)-4-methoxy-2-((3-((trifluoromethyl)sulfonyl)phenyl)carbamoyl)cyclopentyl)carbamoyl)phenoxy)-1-methylcyclohexane-1-carboxylic acid]	920 µM (≈ 621 µg/mL)	–	–	–	0.27 µM	4 % free	95%	>300 µL/min/mg	34 μL/min/10^6 cells	49 μL/min/10^6 cells	–
Cc1cc(F)c(O[C@H]2CC[C@@](C)(C(=O)O)CC2)cc1C(=O)N[C@@H]1[C@H]2CC[C@H](C2)[C@@H]1C(=O)NCC1(C)CCC1 [Example 5, (1S,4s)-4-(2-Fluoro-4-methyl-5-(((1S,2R,3S,4R)-3-(((1-methylcyclobutyl)methyl)carbamoyl)bicyclo[2.2.1]heptan-2-yl)carbamoyl)phenoxy)-1-methylcyclohexane-1-carboxylic acid]	800 µM (≈ 423 µg/mL)	16 µL/min/mg	11 µL/min/1e6 cells	15 µL/min/1e6 cells	–	2.4 % free	85%	–	–	–	> 1.7 µM
COc1cc(F)c(O[C@H]2CC[C@@H](C(=O)O)CC2)cc1C(=O)N[C@@H]1[C@H]2CC[C@H](C2)[C@@H]1C(=O)Nc1cccc(C(F)F)c1 [Example 10, (1S,4s)-4-(5-(((1S,2R,3S,4R)-3-((3-(Difluoromethyl)phenyl)carbamoyl)bicyclo[2.2.1]heptan-2-yl)carbamoyl)-2-fluoro-4-methoxyphenoxy)cyclohexane-1-carboxylic acid]	750 µM (≈ 431 µg/mL)	32 µL/min/mg	130 µL/min/1e6 cells	11 µL/min/1e6 cells	0.5 µM	2.2 % free	104%	–	–	–	–
COc1cc(F)c(O[C@H]2CC[C@@](C)(C(=O)O)CC2)cc1C(=O)N[C@@H]1[C@H]2CC[C@H](C2)[C@@H]1C(=O)NCC(C)(C)C [Example 35, (1S,4s)-4-(2-Fluoro-4-methoxy-5-(((1S,2R,3S,4R)-3-(neopentylcarbamoyl)bicyclo[2.2.1]heptan-2-yl)carbamoyl)phenoxy)-1-methylcyclohexane-1-carboxylic acid]	> 730 µM	14 µL/min/mg	23 µL/min/1e6 cells	2.7 µL/min/1e6 cells	–	8.2 % free	–	–	–	–	0.039 µM
CCC(C)(C)CNC(=O)[C@H]1[C@@H]2CC[C@@H](C2)[C@H]1NC(=O)c1cc(O[C@H]2CC[C@@](C)(C(=O)O)CC2)c(F)cc1OC [Example 37, (1S,4s)-4-(5-(((1S,2R,3S,4R)-3-((2,2-Dimethylbutyl)carbamoyl)bicyclo[2.2.1]heptan-2-yl)carbamoyl)-2-fluoro-4-methoxyphenoxy)-1-methylcyclohexane-1-carboxylic acid]	830 µM (≈ 454 µg/mL)	27 µL/min/mg	22 µL/min/1e6 cells	4.8 µL/min/1e6 cells	0.02 µM	3.8 % free	103%	–	–	–	–
COc1cc(F)c(O[C@H]2CC[C@@](C)(C(=O)O)CC2)cc1C(=O)N[C@@H]1[C@H]2CC[C@H](C2)[C@@H]1C(=O)NC(C(C)C)C(C)C [Example 40]	2.5 µM (≈ 1.4 µg/mL)	190 µL/min/mg	52 µL/min/1e6 cells	30 µL/min/1e6 cells	0.81 µM	3.4 % free	97%	–	–	–	–
